Where “and” joins values, the source holds several entries; their conditions need not be identical. Identical values can stand only once.
Experiments:
[1] = test system: sRANKL induced osteoclast differentiation; experiment: In vitro anti-osteoclastogenesis activity determination (TRAP staining); assay type: cell-based, mouse; set-up: key to inhibition of osteoclastogenesis, dose-response (fig. S2a): % inhibition = 100 − (treated−unstimulated)/(untreated−unstimulated)×100; settings: for inhibition of osteoclastogenesis, dose-response (fig. S2a): three replicate columns; for IC50: BMMs, M-CSF + 100 ng/mL sRANKL, 5 days, TRAP staining, read-out: OC IC50 (anti-osteoclastogenesis activity)
Outline: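 Mouse bone-marrow macrophages in 10 ng/mL M-CSF were stimulated with 100 ng/mL sRANKL plus compound at 9 concentrations, refreshed every 2 days, triplicate wells. After 5 days TRAP-stained osteoclasts were counted; inhibition normalised to untreated and unstimulated controls, IC50 by nonlinear regression.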

sRANKL = biological target: T1, sRANKL (Rattus norvegicus, UniProt Q9ESE2, D175N); experiment: Surface plasmon resonance (SPR) assay; assay type: binding; settings: immobilized sRANKL, 25 °C
T1 construct: (1) sRANKL (rat 159-318 aa); His6-sumo (N, cleaved yes); made in house; host or cells: Escherichia coli BL21 (DE3)
T1 sequence (Q9ESE2 159-318 D175N): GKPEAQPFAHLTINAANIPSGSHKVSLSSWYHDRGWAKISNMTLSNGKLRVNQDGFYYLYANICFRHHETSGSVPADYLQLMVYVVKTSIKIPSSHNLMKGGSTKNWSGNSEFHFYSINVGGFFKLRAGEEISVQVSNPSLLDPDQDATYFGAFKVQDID
Protocol: A ProteOn XPR36TM SPR instrument (BioRad Hercules, CA) was used for carrying out SPR assays. sRANKL protein in PBS buffer, pH 7.4, was diluted to 20 nM in 10 mM sodium acetate buffer, pH 5.5 and immobilized in parallelflow channels of a the EDAC/Sulfo-NHS activated surface of a GLH biosensor chip (Bio-Rad) with an amine coupling kit (Bio-Rad). The surface was blocked with 1 M ethanolamine. The final immobilization level for sRANKL was approximately 14,000 RU. A blank immobilization channel in the same GLH biosensor chip was also activated with EDAC/Sulfo-NHS and blocked with 1 M ethanolamine to use as a reference.
Biosensor binding experiments were conducted in filtered and degassed running buffer (PBS containing 0.005% Tween-20, pH 7.4) at 25 °C. Compounds was dissolved in 100% DMSO in appropriate different series concentrations of stock solutions. Before detecting, compounds were diluted in six or five concentrations with running buffer and ensured that the content of DMSO contained in each detected concentration was consistent. Compounds in different concentrations were injected simultaneously at a flow rate at […] for 180 s and 120 s for the association phase, followed by 180 s for the disassociation. Following the compound injection, the chip surface was regenerated with 40 s pulses of 0.85% H3PO4 and running buffer.
ProtedOn Manager 2.0. was used for data analysis. Each set of sensorgrams was globally analyzed using the 1:1 Langmuir binding model to obtain the kinetic rate constants (Kon and Koff). Global kinetic rate constants (ka and kd) were derived for each reaction, and the equilibrium dissociation constant, KD, was calculated using the equation KD = kd/ka.

RAW264.7 cells = experiment: In vitro cytotoxicity assay (MTT); assay type: cell-based, mouse; settings: RAW264.7, MTT
Protocol: MTT assay was used to determine cell viability. RAW264.7 cells in the logarithmic growth phase were cultured in 96-well plates with 6 × 10^3 cells in each well and incubated for 24 h. The surviving cells were then determined by MTT method. […] Cell growth inhibition ratio was calculated as follows: Cellgrowthinhibitionratio%=ODvehicle−ODtreaed/ODvehicle×100%
Cell cytotoxicity CC50 value were conducted by using Nonlinear regression (curve fit) analytic procedure in GraphPad Prism 8.

[2] = biological target: T2, recombinant RANK (mouse extracellular RANK fragment, residues 26-210) (mouse, UniProt O35305 26-210); experiment: pull-down; 120 ug GST-sRANKL on the resin in PBS with 1% BSA, room temperature; compounds (50 uM) or 0.8% DMSO control for 30 min, then 25 ug RANK for 20 min; SDS-PAGE, Coomassie blue; settings: both partners purified
T2 construct: RANK (TNFRSF11A), mouse, extracellular fragment, residues 26-210, cloned into pET28a between Nde I and Xho I; In the functional rows the RANK that was present is the endogenous receptor on mouse bone marrow cells; also called soluble RANK
T2 sequence (looked up): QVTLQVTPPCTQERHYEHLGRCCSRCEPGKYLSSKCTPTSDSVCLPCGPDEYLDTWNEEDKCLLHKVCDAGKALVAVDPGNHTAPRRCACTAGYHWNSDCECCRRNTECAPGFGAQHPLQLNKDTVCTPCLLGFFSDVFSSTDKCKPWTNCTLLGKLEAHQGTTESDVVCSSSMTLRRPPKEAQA

[3] = biological target: the molecule itself; experiment: cross-linking; cross-link assay of sRANKL with S3-15; methods not shown

Molecule: CC(=O)C(=NNc1ccccc1C(=O)O)C(=O)Nc1nc(C)c(C(=O)O)s1 [S3-01]
- inhibition of osteoclastogenesis, dose-response (fig. S2a) ([1]; conc. 0.0023464 μM): 5.532 (2×) and 2.66
- inhibition of osteoclastogenesis, dose-response (fig. S2a) ([1]; conc. 0.00774313 μM): 13.1915 and 15.7447 and 16.7021
- inhibition of osteoclastogenesis, dose-response (fig. S2a) ([1]; conc. 0.0255523 μM): 9.043 and 12.234 and 13.5106
- inhibition of osteoclastogenesis, dose-response (fig. S2a) ([1]; conc. 0.0843226 μM): 12.234 and 16.7021 and 15.1064
- inhibition of osteoclastogenesis, dose-response (fig. S2a) ([1]; conc. 0.278265 μM): 42.234 and 40.3192 and 42.5532
- inhibition of osteoclastogenesis, dose-response (fig. S2a) ([1]; conc. 0.918274 μM): 61.7021 and 57.234 and 62.3404
- inhibition of osteoclastogenesis, dose-response (fig. S2a) ([1]; conc. 3.0303 μM): 74.1489 and 77.0213 and 79.8936
- inhibition of osteoclastogenesis, dose-response (fig. S2a) ([1]; conc. 10 μM): 99.3617 (2×) and 99.0426
- inhibition of osteoclastogenesis, dose-response (fig. S2a) ([1]; conc. 33 μM): 100
- Kd (sRANKL): 211 µM
- CC50 (RAW264.7 cells): 62.3 µM

Molecule: CCOC(=O)c1sc(NC(=O)C(=NNc2ccc(C(=O)O)cc2)C(C)=O)nc1C [S3-02]
- IC50 [1]: 1.24 µM and > 1 µM
- inhibition of osteoclastogenesis, dose-response (fig. S2a) ([1]; conc. 0.0023464 μM): 0.3058 and -2.446 and -0.3058
- inhibition of osteoclastogenesis, dose-response (fig. S2a) ([1]; conc. 0.00774313 μM): 12.2324 and 9.48 and 14.6789
- inhibition of osteoclastogenesis, dose-response (fig. S2a) ([1]; conc. 0.0255523 μM): 19.5719 and 20.7951 and 20.4893
- inhibition of osteoclastogenesis, dose-response (fig. S2a) ([1]; conc. 0.0843226 μM): 19.5719 and 21.7125 and 20.1835
- inhibition of osteoclastogenesis, dose-response (fig. S2a) ([1]; conc. 0.278265 μM): 22.9358 and 29.3578 (2×)
- inhibition of osteoclastogenesis, dose-response (fig. S2a) ([1]; conc. 0.918274 μM): 32.1101 and 33.9449 and 35.474
- inhibition of osteoclastogenesis, dose-response (fig. S2a) ([1]; conc. 3.0303 μM): 59.0214 and 60.5505 and 61.1621
- inhibition of osteoclastogenesis, dose-response (fig. S2a) ([1]; conc. 10 μM): 81.6514 and 80.7339 and 87.7676
- inhibition of osteoclastogenesis, dose-response (fig. S2a) ([1]; conc. 33 μM): 100
- Kd (sRANKL): 38 µM
- CC50 (RAW264.7 cells): 41.9 µM

Molecule: CCOC(=O)c1sc(NC(=O)C(=NNc2cccc(C(=O)O)c2)C(C)=O)nc1C [S3-03]
- IC50 [1]: 0.36 µM
- inhibition of osteoclastogenesis, dose-response (fig. S2a) ([1]; conc. 0.0023464 μM): 4.313 and 4.012 and -1.404
- inhibition of osteoclastogenesis, dose-response (fig. S2a) ([1]; conc. 0.00774313 μM): 4.012 and 1.304 and -0.5015
- inhibition of osteoclastogenesis, dose-response (fig. S2a) ([1]; conc. 0.0255523 μM): 11.5346 and 24.4734 and 19.659
- inhibition of osteoclastogenesis, dose-response (fig. S2a) ([1]; conc. 0.0843226 μM): 33.8014 and 30.1906 and 37.1113
- inhibition of osteoclastogenesis, dose-response (fig. S2a) ([1]; conc. 0.278265 μM): 47.6429 and 50.0502 and 47.342
- inhibition of osteoclastogenesis, dose-response (fig. S2a) ([1]; conc. 0.918274 μM): 51.8556 and 56.9709 and 59.3781
- inhibition of osteoclastogenesis, dose-response (fig. S2a) ([1]; conc. 3.0303 μM): 77.4323 and 79.5386 and 69.007
- inhibition of osteoclastogenesis, dose-response (fig. S2a) ([1]; conc. 10 μM): 99.0973 and 98.7964 (2×)
- inhibition of osteoclastogenesis, dose-response (fig. S2a) ([1]; conc. 33 μM): 100
- Kd (sRANKL): 33.7 µM
- CC50 (RAW264.7 cells): 33.9 µM

Molecule: CC(=O)C(=NNc1ccccc1C(=O)O)C(=O)Nc1nccs1 [S3-09]
- inhibition of osteoclastogenesis, dose-response (fig. S2a) ([1]; conc. 0.0023464 μM): -0.7659 (2×) and 2.516
- inhibition of osteoclastogenesis, dose-response (fig. S2a) ([1]; conc. 0.00774313 μM): 0.2188 and -0.1094 and 1.86
- inhibition of osteoclastogenesis, dose-response (fig. S2a) ([1]; conc. 0.0255523 μM): 6.455 and 3.501 and 2.845
- inhibition of osteoclastogenesis, dose-response (fig. S2a) ([1]; conc. 0.0843226 μM): 10.3939 and 2.845 and 7.44
- inhibition of osteoclastogenesis, dose-response (fig. S2a) ([1]; conc. 0.278265 μM): 45.186 and 26.8053 and 32.3851
- inhibition of osteoclastogenesis, dose-response (fig. S2a) ([1]; conc. 0.918274 μM): 57.9869 (2×) and 48.7965
- inhibition of osteoclastogenesis, dose-response (fig. S2a) ([1]; conc. 3.0303 μM): 69.1466 and 68.8184 and 61.9256
- inhibition of osteoclastogenesis, dose-response (fig. S2a) ([1]; conc. 10 μM): 80.6346 and 77.0241 and 79.6499
- inhibition of osteoclastogenesis, dose-response (fig. S2a) ([1]; conc. 33 μM): 100
- Kd (sRANKL): 33.7 µM
- CC50 (RAW264.7 cells): > 100 µM

B1: GST tag recombinant rat sRANKL (GST-sRANKL) (ligand, UniProt Q9ESE2 160-318, looked up)
chain: KPEAQPFAHLTINAADIPSGSHKVSLSSWYHDRGWAKISNMTLSNGKLRVNQDGFYYLYANICFRHHETSGSVPADYLQLMVYVVKTSIKIPSSHNLMKGGSTKNWSGNSEFHFYSINVGGFFKLRAGEEISVQVSNPSLLDPDQDATYFGAFKVQDID
notes: also called soluble RANKL; source: E. coli BL21 (DE3), purified (glutathione sepharose, Superdex 200 Increase)
- binding result [2]: binds

B2: label-free rat sRANKL (wild type) (ligand, UniProt Q9ESE2 160-318, looked up)
chain: KPEAQPFAHLTINAADIPSGSHKVSLSSWYHDRGWAKISNMTLSNGKLRVNQDGFYYLYANICFRHHETSGSVPADYLQLMVYVVKTSIKIPSSHNLMKGGSTKNWSGNSEFHFYSINVGGFFKLRAGEEISVQVSNPSLLDPDQDATYFGAFKVQDID
notes: RANKL, rat, soluble form sRANKL; also called WT sRANKL; soluble RANKL; source: E. coli BL21 (DE3), purified (Ni-NTA, released by Ulp1, HiLoad Superdex 200); not shown: His6, N-terminal, cleaved; SUMO, N-terminal, cleaved
- stoichiometry N [3]: 3
